Test results published in US11123313B2, “Methods and compositions for treating sleep apnea” (The Brigham and Women's Hospital, Inc., priority 2017, dated 2021).

System: obstructive sleep apnea (OSA) human patients
Conditions: seven OSA patients, 2 additional nights with single drugs
Procedure: Subsequently, a placebo-controlled, double-blinded, randomized, crossover trial in 20 obstructive sleep apnea (OSA) human patients was performed. Participants received treatment (Atomoxetine 80 mg+Oxybutynin 5 mg) or placebo in randomized order 30 minutes before sleep. […] Data are expressed as median [25th-75th percentile]
Seven OSA patients were studied also on 2 additional nights in which the 2 drugs were administered alone (not in combination).
Group data was obtained using genioglossus electromyography in 16 out of 20 patients who took part to the original trial to determine the effect of Atomoxetine plus Oxybutynin (ato-oxy) on genioglossus muscle responsiveness. Muscle responsiveness reflects the change in genioglossus muscle electromyographic activity (percent of baseline) per change in esophageal pressure (Pes) swings during spontaneous breathing in non-REM sleep (see FIG. 10B for physiological context).

Structure (SMILES): CNCC[C@@H](Oc1ccccc1C)c1ccccc1 [Atomoxetine]
- AHI compared to placebo, drugs alone vs in combination: did not improve the AHI

Structure (SMILES): CCN(CC)CC#CCOC(=O)C(O)(c1ccccc1)C1CCCCC1 (centres unmarked) [Oxybutynin]
- AHI compared to placebo, drugs alone vs in combination: did not improve the AHI
